# Source: patent US20250049812A1, “Compounds that Inhibit Necroptosis and Their Preparation Methods” (SHANGHAI INSTITUTE OF ORGANIC CHEMISTRY, CHINESE ACADEMY OF …, priority 2021, published 2025)
# System: Jurkat FADD (−/−) Cells
# Assay: TNF-α induced necroptosis of Jurkat FADD-deficient cells (CellTiter-Glo cell survival)
# Type: cell-based, human
# Conditions: Homo sapiens, Jurkat, 13 h
# Outline: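 Cells in RPMI 1640 with 10% FBS were pretreated for 1 h at 37 °C with compound (12-point threefold series from 25 μM, or 0.5 μM, in triplicate). They were then stimulated with TNFα added as a 5 ng/mL solution for 13 h. Survival was read by luminescence.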
row,Compound,IC50 [nM]
1,"COC(=O)Cn1cc2c3c(cccc31)N(C)C(=O)C(NC(=O)c1nnc(Cc3ccccc3)[nH]1)C2 (racemic) [T-29, (±)-methyl2-(3-(5-benzyl-4H-1,2,4-triazole-3-carboxamide)-1-methyl-2-oxo-1,2,3,4-tetrahydro-6H-azacyclo [4,3,2-cd]indol-6-yl)acetate]",< 10

# Same assay, conditions: Homo sapiens; TNF-α induced necroptosis, Jurkat FADD-deficient cells, 13 hours, CellTiter-Glo; read-out: IC50
row,Compound,IC50 [nM]
1,"Cc1noc(C)c1-c1cn2c3c(cccc13)N(C)C(=O)C(NC(=O)c1nnc(Cc3ccccc3)[nH]1)C2 (stereo not drawn) [T-86, 5-benzyl-N-(7-(3,5-dimethylisoxazol-4-yl)-1-methyl-2-oxo-1,2,3,4-tetrahydro-[1,4]diazepine[3,2,1-hi]indol-3-yl)-4H-1,2,4-triazole-3-carboxamide]",< 10
2,"CN1C(=O)C(NC(=O)c2nnc(Cc3ccccc3)[nH]2)Cc2cn(-c3ncccc3C(=O)OC3CC3)c3cccc1c23 (racemic) [T-66, (±)-2-(3-(5-benzyl-4H-1,2,4-triazole-3-carboxamide)-1-methyl-2-oxo-1,2,3,4-tetrahydro-6H-azacyclo [4,3,2-cd]indol-6-yl)nicotinic Acid Cyclopropane]",< 10
3,"CN1C(=O)C(NC(=O)c2nnc(Cc3ccccc3)[nH]2)Cc2cn(C)c3cccc1c23 (racemic) [T-20, (±)-5-benzyl-N-(1,6-dimethyl-2-oxo-2,3,4,6-tetrahydro-1H-azacyclo [4,3,2-cd]indol-3-yl)-4H-1,2,4-triazole-3-carboxamide]",10 to 100
4,"CN1C(=O)C(NC(=O)c2nnc(Cc3ccccc3)[nH]2)Cc2cn(-c3ncccc3CF)c3cccc1c23 (racemic) [T-54, (±)-5-benzyl-N-(6-(3-(fluoromethyl)pyridin-2-yl)-1-methyl-2-oxo-2,3,4,6-tetrahydro-1H-azacyclo [4,3,2-cd]indol-3-yl)-4H-1,2,4-triazole-3-carboxamide]",< 10
5,"CN1C(=O)C(N2CCc3c(nn(Cc4ccccc4)c3Cl)C2=O)Cn2cc(-c3ccnn3C)c3cccc1c32 (racemic) [T-89, (±)-3-(2-benzyl-3-chloro-7-oxo-2,4,5,7-tetrahydro-6H-pyrazole [3,4-c]pyridin-6-yl)-1-methyl-7-(1-methyl-1H-pyrazol-5-yl)-3,4-dihydro-[1,4]diazepine[3,2,1-hi]indole-2(1H)-one]",10 to 100
6,"CCOc1cccnc1-n1cc2c3c(cccc31)N(C)C(=O)C(NC(=O)c1nnc(Cc3ccccc3)[nH]1)C2 (racemic) [T-67, (±)-5-benzyl-N-(6-(3-ethoxypyridin-2-yl)-1-methyl-2-oxy-2,3,4,6-tetrahydro-1H-azacyclo [4,3,2-cd]indol-3-yl)-4H-1,2,4-triazole-3-carboxamide]",< 10
7,"CN1C(=O)C(NC(=O)c2nnc(Cc3ccccc3)[nH]2)Cc2cn(-c3cnccc3CO)c3cccc1c23 (racemic) [T-48, (±)-5-benzyl-N-(6-(4-(hydroxymethyl)pyridin-3-yl)-1-methyl-2-oxo-2,3,4,6-tetrahydro-1H-azacyclo [4,3,2-cd]indol-3-yl)-4H-1,2,4-triazole-3-carboxamide]",< 10
8,"CNS(=O)(=O)c1cccnc1-n1cc2c3c(cccc31)N(C)C(=O)C(NC(=O)c1nnc(Cc3ccccc3)[nH]1)C2 (racemic) [T-75, (±)-5-benzyl-N-(1-methyl-6-(3-(N-methylsulfamoyl)pyridin-2-yl)-2-oxo-2,3,4,6-tetrahydro-1H-azacyclo [4,3,2-cd]indol-3-yl)-4H-1,2,4-triazole-3-carboxamide]",10 to 100
9,"COc1cccnc1-n1cc2c3c(cccc31)N(C)C(=O)C(NC(=O)c1nnc(Cc3ccccc3)[nH]1)C2 (racemic) [T-41, (±)-5-benzyl-N-(6-(3-methoxypyridin-2-yl)-1-methyl-2-oxo-2,3,4,6-tetrahydro-1H-azacyclo [4,3,2-cd]indol-3-yl)-4H-1,2,4-triazole-3-carboxamide]",< 10
10,"COCc1ccncc1-n1cc2c3c(cccc31)N(C)C(=O)C(NC(=O)c1nnc(Cc3ccccc3)[nH]1)C2 (racemic) [T-42, (±)-5-benzyl-N-(6-(4-(methoxymethyl)pyridin-3-yl)-1-methyl-2-oxo-2,3,4,6-tetrahydro-1H-azacyclo [4,3,2-cd]indol-3-yl)-4H-1,2,4-triazole-3-carboxamide]",< 10
11,"COCCn1cc2c3c(cccc31)N(C)C(=O)C(NC(=O)c1nnc(Cc3ccccc3)[nH]1)C2 (racemic) [T-28, (±)-5-benzyl-N-(6-(2-methoxyethyl)-1-methyl-2-oxo-2,3,4,6-tetrahydro-1H-azacyclo [4,3,2-cd]indol-3-yl)-4H-1,2,4-triazole-3-carboxamide]",< 10
12,"Cc1c(-c2cn3c4c(cccc24)N(C)C(=O)[C@@H](NC(=O)c2nnc(Cc4ccccc4)[nH]2)C3)cnn1C [T-125, (S)-5-benzyl-N-(7-(1,5-dimethyl-1H-pyrazol-4-yl)-1-methyl-2-oxo-1,2,3,4-tetrahydro-1,4-diazepine [3,2,1-hi]indol-3-yl)-4H-1,2,4-triazole-3-carboxamide]",< 10
13,"COC(=O)c1cccnc1-n1cc2c3c(cccc31)N(C)C(=O)C(NC(=O)c1nnc(Cc3ccccc3)[nH]1)C2 (racemic) [T-43, (±)-2-(3-(5-benzyl-4H-1,2,4-triazole-3-carboxamide)-1-methyl-2-oxo-1,2,3,4-tetrahydro-6H-azacyclo [4,3,2-cd]indol-6-yl)nicotinate]",< 10
14,"CN1C(=O)C(NC(=O)c2nnc(Cc3ccccc3)[nH]2)Cn2cc(-c3cnn(C)c3)c3cccc1c32 (racemic) [T-15, (±)-5-benzyl-N-(1-methyl-7-(1-methyl-1H-pyrazol-4-yl)-2-oxy-1,2,3,4-tetrahydro-[1,4]diazepino [3,2,1-hi]indol-3-yl)-4H-1,2,4-triazole-3-carboxamide]",< 10
15,"CCOC(=O)c1cc2cccc3c2n1CC(NC(=O)c1nnc(Cc2ccccc2)[nH]1)C(=O)N3C (racemic) [T-12, (±)-3-(5-benzyl-4H-1,2,4-triazole-3-carboxamido)-1-methyl-2-oxy-1,2,3,4-tetrahydro-[1,4] diazepino [3,2,1-hi] indole-6-carboxylate]",100 to 1000
16,"COC(=O)c1ncncc1-n1cc2c3c(cccc31)N(C)C(=O)C(NC(=O)c1nnc(Cc3ccccc3)[nH]1)C2 (racemic) [T-51, (±)-5-(3-(5-benzyl-4H-1,2,4-triazole-3-carboxamide)-1-methyl-2-oxo-1,2,3,4-tetrahydro-6H-azacyclo [4,3,2-cd]indol-6-yl)pyrimidine-4-carboxylic Acid Methyl Ester]",10 to 100
17,"CN1C(=O)C(NC(=O)c2nnc(Cc3ccccc3)[nH]2)Cc2cn(-c3ncccc3C(=O)O)c3cccc1c23 (racemic) [T-46, (±)-2-(3-(5-benzyl-4H-1,2,4-triazole-3-carboxamide)-1-methyl-2-oxo-1,2,3,4-tetrahydro-6H-azacyclo [4,3,2-cd]indol-6-yl)nicotinic Acid]",100 to 1000
18,"CC(C)OC(=O)c1cccnc1-n1cc2c3c(cccc31)N(C)C(=O)C(NC(=O)c1nnc(Cc3ccccc3)[nH]1)C2 (racemic) [T-104, (±)-2-(3-(5-benzyl-4H-1,2,4-triazole-3-carboxamide)-1-methyl-2-oxo-1,2,3,4-tetrahydro-6H-azacyclo [4,3,2-cd]indol-6-yl)isopropyl Nicotinate]",10 to 100
19,"CN1C(=O)C(NC(=O)c2nnc(Cc3ccccc3)[nH]2)Cn2ccc3cc(F)cc1c32 (racemic) [T-7, (±)-5-benzyl-N-(9-fluoro-1-methyl-2-oxo-1,2,3,4-tetrahydro-[1,4]diazepino [3,2,1-hi]indol-3-yl)-4H-1,2,4-triazole-3-carboxamide]",10 to 100
20,"CN1C(=O)C(NC(=O)c2nnc(Cc3ccccc3)[nH]2)Cc2cn(CCF)c3cccc1c23 (racemic) [T-26, (±)-5-benzyl-N-(6-(2-fluoroethyl)-1-methyl-2-oxo-2,3,4,6-tetrahydro-1H-azacyclo [4,3,2-cd]indol-3-yl)-4H-1,2,4-triazole-3-carboxamide]",10 to 100
21,"CN1C(=O)C(NC(=O)c2nnc(Cc3ccccc3)[nH]2)Cn2cc(Br)c3ccc(Br)c1c32 (racemic) [T-79, (±)-5-benzyl-N-(7,10-dibromo-1-methyl-2-oxo-1,2,3,4-tetrahydro-[1,4]diazepino [3,2,1-hi]indol-3-yl)-4H-1,2,4-triazole-3-carboxamide]",> 1000
22,"CN1C(=O)C(NC(=O)c2ncc(Cc3ccccc3)o2)Cc2cn(-c3ncccc3C(F)(F)F)c3cccc1c23 (racemic) [T-63, (±)-5-benzyl-N-(1-methyl-2-oxo-6-(3-(trifluoromethyl)pyridin-2-yl)-2,3,4,6-tetrahydro-1H-azacyclo [4,3,2-cd]indol-3-yl) oxazole-2-carboxamide]",< 10
23,"CN1C(=O)C(NC(=O)c2nnc(Cc3ccccc3)[nH]2)Cc2c[nH]c3cc(C#Cc4cnn(C)c4)cc1c23 (racemic) [T-45, (±)-5-benzyl-N-(1-methyl-8-((1-methyl-1H-pyrazol-4-yl)ethynyl)-2-oxo-2,3,4,6-tetrahydro-1H-aza [4,3,2-cd]indol-3-yl)-4H-1,2,4-triazole-3-carboxamide]",< 10
24,"CN1C(=O)C(NC(=O)c2nnc(Cc3ccccc3)[nH]2)Cn2cc(-c3cc(C(F)(F)F)nn3C)c3cccc1c32 (racemic) [T-18, (±)-5-benzyl-N-(1-methyl-7-(1-methyl-3-(trifluoromethyl)-1H-pyrazol-5-yl)-2-oxo-1,2,3,4-tetrahydro-[1,4]diazepino [3,2,1-hi]indol-3-yl)-4H-1,2,4-triazole-3-carboxamide]",< 10
25,"CN1C(=O)C(NC(=O)c2nnc(Cc3ccccc3)[nH]2)Cc2cn(-c3ncccc3SC(F)(F)F)c3cccc1c23 (racemic) [T-111, (±)-5-benzyl-N-(1-methyl-2-oxo-6-(3-((trifluoromethyl)thio)pyridin-2-yl)-2,3,4,6-tetrahydro-1H-aza [4,3,2-cd]indol-3-yl)-4H-1,2,4-triazole-3-carboxamide]",< 10
26,"CN1C(=O)C(NC(=O)c2nnc(Cc3ccccc3)[nH]2)Cn2ccc3cc(Cl)cc1c32 (racemic) [T-5, (±)-5-benzyl-N-(9-chloro-1-methyl-2-oxo-1,2,3,4-tetrahydro-[1,4]diazepino [3,2,1-hi]indol-3-yl)-4H-1,2,4-triazole-3-carboxamide]",100 to 1000
